Values of other authors as cited in patent publication US20070020177A1, “Radiometal complex compositions” (priority 2003, published 2007).

Substance: ^99mTc-TRODAT-1
- stable at room temperature (Fan et al): 24 h
- radiochemical purity reached by kit (minimum of 10 μg tropane conjugate in the kit, autoclave heating 30 minutes, Choi et al): greater than 90%
